Data from patent US20150190369A1, “QUERCETIN-3-GLUCOSIDE AND USES THEREOF” (priority 2012, published 2015).

Key:
PCSK9 gene = settings: cited from earlier work
[1] = test system: hepatocyte nuclear factor 1α (HNF-1α); settings: cited from earlier work
Apo B = settings: Caco-2 cells, 5-30 μM; cited from earlier work
LDLR [2] = settings: HepG2 hepatocytes, 75 μM; cited from earlier work
LDLR [3] = experiment: Semi-quantitative immunoblotting for LDLR protein in Huh7 cell lysates; format: cell-based, human; settings: Huh7, at the concentrations of Q3G discussed
Protocol: At passage, Huh7 cells were routinely seeded at sub-confluence (˜10^6 cells/10-cm dish) in Dulbecco's modified Eagle's medium (DMEM) containing 10% fetal bovine serum (FBS) or LPDS (for experiments) and 50 μg/ml gentamycin. They were incubated overnight at 37° C., in a humidified 5% CO2-95% air atmosphere. Cells were treated or not with Q3G at defined concentrations and for defined lengths of time. Media were collected and centrifuged at 200 g for 5 min to sediment suspended cells; supernatants were collected and supplemented with 0.33 volumes of a 3×-concentrated PIC. Cell monolayers were rinsed with ice-cold phosphate-buffered saline (PBS); they were overlaid with […] the RIPA lysis buffer (50 mM Tris-HCl, pH 8, 150 mM NaCl, 1% NP-40, 0.5% Na-deoxycholate and 0.1% SDS) supplemented with 1× PIC. After 20 min in an ice bath, the lysates were centrifuged at 14,000 g and 4° C. for 20 min, and supernatants were collected. Conditioned media and lysates were stored at −20° C. until analysis.
Cell lysates were fractionated by SDS-PAGE and electrophoretically transferred onto a polyvinylidene fluoride membrane. The membrane was incubated with a goat antihuman LDLR, rabbit anti-PCSK9, or rabbit anti-SREBP-2 polyclonal antibody at 1:1000, 1:1500, and 1:200 dilutions, respectively, and then with a HRP-conjugated heterospecific secondary antibody against the primary Igs at a 1:2000 dilution. It was probed for HRP reaction using the Western Lightning Chemiluminescence Reagent Plus a chemiluminescence-based revelation kit. The signal was captured on X-ray film and immunoreactive bands analyzed by densitometry on a Syngene's ChemiGenius^2XE Bio Imaging System (Cambridge, Mass.) within the dynamic range of the instrument. The membrane was stripped and reprobed with the anti-β-actin monoclonal primary antibody at 1:20,000 dilution and HRP-conjugated rabbit anti-mouse IgG secondary antibody at a 1:5000 dilution. The densitometric values of β-actin bands were using for normalization of experimental samples.
Huh7 cells, hepatocyte derived cellular carcinoma cells, were incubated for 24 h in medium containing 10% lipoprotein-depleted serum (LPDS) and 0 to 10 μM Q3G. The level of LDLR mRNA was measured by quantitative real-time RT-PCR; that of the LDLR protein by semi-quantitative immunoblotting. Exposure to Q3G increased the intracellular content of LDLR mRNA in a concentration-dependent manner; the increase reached a 2× maximum at 2 μM (P<0.01, relative to no Q3G) (FIG. 3A). The content of the corresponding protein followed a similar pattern, but reached a 4× maximum at 4 μM (P<0.005) (FIG. 3B).
The kinetics of cellular accumulation of LDLR and PCSK9 at 2 μM Q3G was also examined: PCSK9 accumulation in the cells began after a 3-h lag; that of LDLR after 6-h lag (FIG. 6).
Statins induce expression of LDLR and PCSK9. […] We examined whether, at a 5 μM concentration of Q3G, simvastatin at 0.2 and 1 μM could further up regulate LDLR expression in Huh7 cells; and, inversely, whether the flavonol can reduce statin-stimulated PCSK9 secretion secreted by Huh7 cells.

PCSK9 = experiment: ELISA for secreted PCSK9 in conditioned media of Huh7 cells; format: cell-based, human; settings: Huh7, at the concentrations used for Q3G
Protocol: Media were collected and PCSK9 levels therein were determined by ELISA.
At passage, Huh7 cells were routinely seeded at sub-confluence (˜10^6 cells/10-cm dish) in Dulbecco's modified Eagle's medium (DMEM) containing 10% fetal bovine serum (FBS) or LPDS (for experiments) and 50 μg/ml gentamycin. They were incubated overnight at 37° C., in a humidified 5% CO2-95% air atmosphere. Cells were treated or not with Q3G at defined concentrations and for defined lengths of time. Media were collected and centrifuged at 200 g for 5 min to sediment suspended cells; supernatants were collected and supplemented with 0.33 volumes of a 3×-concentrated PIC. Cell monolayers were rinsed with ice-cold phosphate-buffered saline (PBS); they were overlaid with 0.5 of the RIPA lysis buffer (50 mM Tris-HCl, pH 8, 150 mM NaCl, 1% NP-40, 0.5% Na-deoxycholate and 0.1% SDS) supplemented with 1× PIC. After 20 min in an ice bath, the lysates were centrifuged at 14,000 g and 4° C. for 20 min, and supernatants were collected. Conditioned media and lysates were stored at −20° C. until analysis.
The assays for PCSK9 and insulin were conducted as prescribed by kit manufacturers, using a Thermo Scientific plate reader. For example, PCSK9 levels in conditioned media were measured using the human PCSK9 ELISA kit from Circulex, as specified the manufacturer. The assay was a sandwich immunoassay using two antibodies (A and B) recognizing different PCSK9 epitopes. Briefly, aliquot of diluted media were overlaid on wells coated with anti-PCSK9 antibody A. After 1-h incubation, the wells were washed, overlaid with a solution of HRP-conjugated anti-PCSK9 antibody B, and incubated for 1 h. They were washed again, and overlaid with a solution of tetra-methylbenzidine as a chromogenic substrate for HRP. After 15 min, the reaction was stopped with ammonium sulfate and the absorbance of the reaction mixtures measured by spectrophotometry at 450 nm. All the steps were performed at room temperature. Standards consisted of recombinant human PCSK9.

Compound: COc1ccc2cc3[n+](cc2c1OC)CCc1cc2c(cc1-3)OCO2 [Berberine]
- PCSK9 gene transcription (PCSK9 gene): reduces
- expression of HNF-1α [1]: decreased expression

Compound: O=c1c(O)c(-c2ccc(O)c(O)c2)oc2cc(O)cc(O)c12 [quercetin aglycone, quercetin]
- Apo B secretion (Apo B): inhibit
- LDLR expression (LDLR [2]): up-regulation
- increase in LDLR level (LDLR [3]): not observed
- effect on PCSK9 secretion (PCSK9): not observed
- effect on PCSK9 secretion (PCSK9; listed as aglycone form of quercetin): failed to affect PCSK9 secretion
